Where a name gives a salt, the structure may show the parent alone.
Legend:
human arginase I (ARG I) = target: T1, human arginase I (ARG I) (Homo sapiens, UniProt P05089); experiment: Inhibition of arginase I, spectrophotometric urea assay at 530 nm; format: biochemical; settings: Formula II compounds, Table 2-A; read-out: Potency (ARG I)
T1 sequence (P05089 1-322): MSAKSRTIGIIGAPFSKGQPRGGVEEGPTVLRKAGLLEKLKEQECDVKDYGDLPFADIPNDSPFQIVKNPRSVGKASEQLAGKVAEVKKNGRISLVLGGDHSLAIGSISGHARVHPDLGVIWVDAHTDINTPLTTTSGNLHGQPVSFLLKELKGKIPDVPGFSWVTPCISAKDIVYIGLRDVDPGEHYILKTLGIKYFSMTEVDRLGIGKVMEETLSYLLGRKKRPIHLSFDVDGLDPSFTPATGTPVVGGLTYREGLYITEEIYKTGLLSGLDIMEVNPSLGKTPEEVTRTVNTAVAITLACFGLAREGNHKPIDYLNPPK
Experimental: (§1) The assay established the concentration of inhibitor that is required to reduce arginase activity by 50% (IC50).
(§2) Inhibition of arginase I (ARG I) and arginase II (ARG II) by Formula I and Formula II compounds is followed spectrophotometrically at 530 nm. The compound to be tested is dissolved in DMSO at an initial concentration 50-fold greater than its final concentration in the cuvette. 10 μl of the stock solution is diluted in 90 μl of the assay buffer that comprises 0.1M sodium phosphate buffer containing 130 mM NaCl, pH 7.4, to which is added ovalbumin (OVA) at a concentration of 1 mg/ml. Solutions of arginase I and II are prepared in 100 mM sodium phosphate buffer, pH 7.4 containing 1 mg/ml of OVA to give an arginase stock solution at a final concentration of 100 ng/ml.
(§3) To each well of a 96-well microtiter plate is add 40 μl of enzyme, 10 μl of an inventive compound and 10 μl of enzyme substrate (L-arginine+manganese sulfate). For wells that are used as positive controls, only the enzyme and its substrate are added, while wells used as negative controls contain only manganese sulfate.
(§4) After incubating the microtiter plate at 37° C. for 60 minutes, 150 μl of a urea reagent obtained by combining equal proportions (1:1) of reagents A and B is added to each well of the microtiter plate to stop the reaction. The urea reagent is made just before use by combining Reagent A (10 mM o-phthaldialdehyde, and 0.4% polyoxyethylene (23) lauryl ether (w/v) in 1.8 M sulfuric acid) with Reagent B (1.3 mM primaquine diphosphate, 0.4% polyoxyethylene (23) lauryl ether (w/v), 130 mM boric acid in 3.6 M sulfuric acid). After quenching the reaction mixture, the microtiter plate is allowed to stand for an additional 10 minutes at room temperature to allow color development. The inhibition of arginase is computed by measuring the optical density (OD) of the reaction mixture at 530 nm and normalizing the OD value to percent inhibition observed in the control. The normalized OD is then used to generate a dose-response curve by plotting the normalized OD values against log [concentration] and using regression analysis to compute the IC50 values.

arginase II (ARG II) = target: T2, arginase II (ARG II) (Homo sapiens, UniProt P78540); experiment: Inhibition of arginase II, spectrophotometric urea assay at 530 nm; format: biochemical; settings: Formula II compounds, Table 2-A; read-out: Potency (ARG)
T2 sequence (P78540 23-354): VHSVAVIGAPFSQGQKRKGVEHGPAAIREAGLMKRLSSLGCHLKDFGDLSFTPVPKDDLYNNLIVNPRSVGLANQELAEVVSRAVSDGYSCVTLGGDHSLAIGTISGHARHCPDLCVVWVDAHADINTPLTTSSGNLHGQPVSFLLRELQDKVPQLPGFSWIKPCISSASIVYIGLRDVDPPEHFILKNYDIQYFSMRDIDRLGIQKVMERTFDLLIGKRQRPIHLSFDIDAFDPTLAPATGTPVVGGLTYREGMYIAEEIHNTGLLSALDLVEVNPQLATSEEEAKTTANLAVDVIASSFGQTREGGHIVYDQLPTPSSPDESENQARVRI
Experimental: as §1, §2, §3, §4

Row | SMILES | IC50 (human arginase I (ARG I)) [nM] | IC50 (arginase II (ARG II)) [nM]
1 | NC(CCCCB(O)O)(C(=O)O)C1CNC1 (centres unmarked) [18-A, 2-amino-2-(azetidin-3-yl)-6-boronohexanoic acid dihydrochloride] | 2000 to 5000 | 2000 to 5000
2 | NC(CCCCB(O)O)(C(=O)O)C1CNCCO1 (centres unmarked) [19-A, 2-amino-6-borono-2-(morpholin-2-yl)hexanoic acid dihydrochloride] | 2000 to 5000 | 2000 to 5000
3 | NC(CCCCB(O)O)(C(=O)O)C1CCN(C(=O)c2ccc(Cl)cc2)CC1 (centres unmarked) [26-A, 2-amino-6-borono-2-[1-(4-chlorobenzoyl)piperidin-4-yl]hexanoic acid hydrochloride] | 2000 to 5000 | 2000 to 5000
4 | CC(=O)N1CCC(C(N)(CCCCB(O)O)C(=O)O)CC1 (centres unmarked) [27-A, 2-amino-6-borono-2-[1-acetylpiperidin-4-yl]hexanoic acid hydrochloride] | 2000 to 5000 | 2000 to 5000
5 | NC(CCCCB(O)O)(C(=O)O)C1CCN(C(=O)Cc2ccc(F)cc2)CC1 (centres unmarked) [28-A, 2-amino-6-borono-2-{1-[(4-fluorophenyl)acetyl]-piperidin-4-yl}hexanoic acid hydrochloride] | 2000 to 5000 | 2000 to 5000
6 | NC(CCCCB(O)O)(C(=O)O)C1CCN(C(=O)Cc2ccc(Cl)cc2)CC1 (centres unmarked) [29-A, 2-amino-6-borono-2-{1-[(4-chlorophenyl)acetyl]-piperidin-4-yl}hexanoic acid hydrochloride] | 1000 to 2000 | > 5000
7 | NC(CCCCB(O)O)(C(=O)O)C1CCN(C(=O)c2ccccc2)CC1 (centres unmarked) [30-A, 2-amino-6-borono-2-[1-benzoylpiperidin-4-yl]hexanoic acid hydrochloride] | 2000 to 5000 | 2000 to 5000
8 | NC(CCCCB(O)O)(C(=O)O)C1CCN(C(=O)NCc2ccc(Cl)cc2)CC1 (centres unmarked) [31-A, 2-amino-6-borono-2-{1-[(4-chlorobenzyl)carbamoyl]-piperidin-4-yl}hexanoic acid hydrochloride] | 1000 to 2000 | 2000 to 5000
9 | NC(CCCCB(O)O)(C(=O)O)C1CCN(C(=O)Nc2ccc(Cl)cc2)CC1 (centres unmarked) [32-A, 2-amino-6-borono-2-{1-[(4-chlorophenyl)-carbamoyl]piperidin-4-yl}hexanoic acid hydrochloride] | 251 to 1000 | 251 to 1000

The remaining lines, values ahead:

Row | IC50 (human arginase I (ARG I)) [nM] | IC50 (arginase II (ARG II)) [nM] | SMILES
10 | 0.1 to 250 | 0.1 to 250 | N[C@@H]1CC[C@H]([C@](N)(CCCCB(O)O)C(=O)O)C1 [15-A, (R)-2-amino-2-((1S,3R)-3-aminocyclopentyl)-6-boronohexanoic acid dihydrochloride]
11 | 0.1 to 250 | 0.1 to 250 | N[C@H]1CC[C@H]([C@](N)(CCCCB(O)O)C(=O)O)C1 [16-A, (R)-2-amino-2-((1S,3S)-3-aminocyclopentyl)-6-boronohexanoic acid dihydrochloride]
12 | 0.1 to 250 | 0.1 to 250 | N[C@H]1CC[C@@H]([C@@](N)(CCCCB(O)O)C(=O)O)C1 [17-A, (S)-2-amino-2-((1R,3S)-3-aminocyclopentyl)-6-boronohexanoic acid dihydrochloride]
13 | 251 to 1000 | 251 to 1000 | NC1CCC(C(N)(CCCCB(O)O)C(=O)O)CC1 (centres unmarked) [20-A, 2-amino-2-(4-aminocyclohexyl)-6-boronohexanoic acid dihydrochloride]
14 | 251 to 1000 | 251 to 1000 | NC(CCCCB(O)O)(C(=O)O)C1CCN(C2CCCCC2)CC1 (centres unmarked) [23-A, 2-amino-6-borono-2-(1-cyclohexylpiperidin-4-yl)hexanoic acid dihydrochloride]
15 | 251 to 1000 | 251 to 1000 | NC(CCCCB(O)O)(C(=O)O)C1CCN(C2CCCC2)CC1 (centres unmarked) [24-A, 2-amino-6-borono-2-(1-cyclopentylpiperidin-4-yl)hexanoic acid dihydrochloride]
16 | 0.1 to 250 | 251 to 1000 | CC1(C)CCC(N2CCC(C(N)(CCCCB(O)O)C(=O)O)CC2)CC1 (centres unmarked) [25-A, 2-amino-6-borono-2-[1-(4,4-dimethylcyclohexyl)piperidin-4-yl]hexanoic acid dihydrochloride]

— patent publication US9994594B2, “Inhibitors of arginase and their therapeutic applications” (MARS, INCORPORATED, priority 2010, dated 2018)
